For data set [1], the target named is T1, Tyrosine-protein phosphatase non-receptor type 7 (Homo sapiens, UniProt P35236).
T1 sequence (P35236 whole entry): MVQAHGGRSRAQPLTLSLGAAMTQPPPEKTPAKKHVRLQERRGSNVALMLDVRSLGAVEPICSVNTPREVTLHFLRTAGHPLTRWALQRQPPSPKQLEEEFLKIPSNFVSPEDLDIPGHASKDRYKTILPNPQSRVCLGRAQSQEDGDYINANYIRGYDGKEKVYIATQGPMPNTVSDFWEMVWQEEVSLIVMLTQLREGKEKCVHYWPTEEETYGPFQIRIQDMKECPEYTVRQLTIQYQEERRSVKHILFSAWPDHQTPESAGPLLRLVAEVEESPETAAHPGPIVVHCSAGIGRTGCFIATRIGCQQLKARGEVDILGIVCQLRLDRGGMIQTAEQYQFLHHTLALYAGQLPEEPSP
It is filed as functional.

Data set [2] has as its target Glyceraldehyde-3-phosphate dehydrogenase (Homo sapiens, UniProt P04406).
The target of data set [3] is T2, Dual specificity protein phosphatase 6 (Rattus norvegicus, UniProt Q64346).
T2 sequence (Q64346 whole entry): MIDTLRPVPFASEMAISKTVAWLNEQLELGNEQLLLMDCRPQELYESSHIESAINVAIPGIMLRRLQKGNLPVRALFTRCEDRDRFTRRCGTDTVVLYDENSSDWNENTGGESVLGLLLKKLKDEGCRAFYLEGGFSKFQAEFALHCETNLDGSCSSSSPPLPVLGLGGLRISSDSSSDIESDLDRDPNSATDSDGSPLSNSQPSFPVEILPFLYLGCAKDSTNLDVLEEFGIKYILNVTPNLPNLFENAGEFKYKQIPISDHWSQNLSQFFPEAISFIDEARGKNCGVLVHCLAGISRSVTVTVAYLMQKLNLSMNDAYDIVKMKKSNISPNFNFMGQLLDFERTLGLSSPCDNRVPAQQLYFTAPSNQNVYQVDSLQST

In data set [4] the target is T2, Dual specificity protein phosphatase 6. It is filed as functional.
Data set [5] has as its system Vero. The experiment in a line: cells. It counts as functional, cell-based. As to conditions: Chlorocebus sabaeus.
The subject of data set [6] is Vero. The data set is described as follows: cells. It is filed as functional. As to conditions: Chlorocebus sabaeus.
Data set [7] concerns the target T3, Cytochrome P450 1A2 (Homo sapiens, UniProt P05177).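 Note: PubChem cytochrome P450 panel assay, CYP1A2 panel member.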
T3 sequence (P05177 whole entry): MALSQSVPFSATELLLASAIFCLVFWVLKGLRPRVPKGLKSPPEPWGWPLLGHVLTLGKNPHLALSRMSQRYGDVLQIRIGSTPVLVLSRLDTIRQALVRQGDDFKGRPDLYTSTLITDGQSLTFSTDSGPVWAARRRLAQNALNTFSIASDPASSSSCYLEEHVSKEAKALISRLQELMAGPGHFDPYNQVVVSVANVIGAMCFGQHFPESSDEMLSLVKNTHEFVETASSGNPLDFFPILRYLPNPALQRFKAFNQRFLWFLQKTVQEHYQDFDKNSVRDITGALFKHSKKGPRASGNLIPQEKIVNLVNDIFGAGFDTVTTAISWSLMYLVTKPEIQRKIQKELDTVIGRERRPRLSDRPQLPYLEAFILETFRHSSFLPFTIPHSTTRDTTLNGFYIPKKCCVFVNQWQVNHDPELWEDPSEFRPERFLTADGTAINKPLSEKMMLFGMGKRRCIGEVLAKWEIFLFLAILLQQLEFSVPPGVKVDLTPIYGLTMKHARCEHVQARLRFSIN

In data set [8] the target is Cytochrome P450 3A4 (Homo sapiens, UniProt P08684).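 Note: CYP3A4 tested as one member of a cytochrome P450 panel screen.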
Chain of Cytochrome P450 3A4 (P08684 whole entry): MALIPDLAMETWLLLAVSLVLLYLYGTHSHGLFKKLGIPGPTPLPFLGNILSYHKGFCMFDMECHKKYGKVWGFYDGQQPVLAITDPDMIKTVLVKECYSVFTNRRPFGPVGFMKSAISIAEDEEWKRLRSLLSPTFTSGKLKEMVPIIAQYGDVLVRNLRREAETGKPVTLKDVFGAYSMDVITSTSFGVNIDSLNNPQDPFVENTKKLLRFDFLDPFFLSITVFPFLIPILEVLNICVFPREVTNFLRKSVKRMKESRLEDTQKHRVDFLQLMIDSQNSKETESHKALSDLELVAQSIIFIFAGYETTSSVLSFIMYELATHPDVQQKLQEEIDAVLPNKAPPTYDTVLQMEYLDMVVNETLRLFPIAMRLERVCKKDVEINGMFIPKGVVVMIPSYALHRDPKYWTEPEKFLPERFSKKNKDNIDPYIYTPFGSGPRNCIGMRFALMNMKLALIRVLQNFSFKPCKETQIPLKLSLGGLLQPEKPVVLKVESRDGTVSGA
Data set [9] in a line: NIH-3T3 fibroblast cytotoxicity, dose response, cytotoxicity control, cell-based, fluorescence, Alamar Blue, secondary assay (AID 2327).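 Note: NIH-3T3 mouse fibroblasts cultured with fluconazole at 8 µg/mL.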 It counts as functional.
The nature of data set [10]: C. albicans growth with fluconazole, confirmation, fluorescence, retest (AID 2467). It is filed as functional, cell-based.
The target in data set [11] is T4, Serine/threonine-protein phosphatase (Candida dubliniensis (strain CD36 / CBS 7987 / NCPF 3949 / NRRLY-17841) (Yeast), UniProt B9W6M3).
T4 sequence (B9W6M3 whole entry): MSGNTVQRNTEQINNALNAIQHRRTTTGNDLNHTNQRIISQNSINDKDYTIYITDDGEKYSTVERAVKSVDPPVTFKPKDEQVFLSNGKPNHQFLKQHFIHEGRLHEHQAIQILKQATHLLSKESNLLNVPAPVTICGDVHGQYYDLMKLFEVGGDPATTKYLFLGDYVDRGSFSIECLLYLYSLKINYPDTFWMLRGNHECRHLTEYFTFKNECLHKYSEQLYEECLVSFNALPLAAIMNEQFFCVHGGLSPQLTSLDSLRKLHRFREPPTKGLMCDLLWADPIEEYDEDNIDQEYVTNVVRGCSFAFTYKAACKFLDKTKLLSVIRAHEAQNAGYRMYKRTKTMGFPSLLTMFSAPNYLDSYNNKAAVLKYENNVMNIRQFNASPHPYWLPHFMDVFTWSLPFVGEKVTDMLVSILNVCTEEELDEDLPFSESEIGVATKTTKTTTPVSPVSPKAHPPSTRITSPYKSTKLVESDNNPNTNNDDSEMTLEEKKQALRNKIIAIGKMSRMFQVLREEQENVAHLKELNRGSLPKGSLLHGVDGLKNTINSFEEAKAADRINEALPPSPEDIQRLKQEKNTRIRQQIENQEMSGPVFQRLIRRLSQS
The experiment in a line: calcineurin pathway inhibitors in yeast reporter, dose response, S. cerevisiae, CDRE-lacZ, luminescence, secondary (AID 2388).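 Note: yeast reporter cells carrying a calcineurin-responsive lacZ construct stimulated with calcium chloride; luminescent beta-galactosidase reporter signal in whole cells rather than isolated phosphatase activity; potency for inhibition where a drop in reporter signal means calcineurin blockade.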 It counts as functional, cell-based.

In data set [12] the target is ATP-dependent molecular chaperone HSP82 (Candida albicans (strain WO-1) (Yeast), UniProt C4YTQ8). The data set is described as follows: loss of DOC-induced GRE-beta-galactosidase reporter signal, dose response, Hsp90 inhibitor project, S. cerevisiae, luminescence (AID 2400).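 Note: beta-galactosidase luminescence from glucocorticoid response element reporter as proxy for Hsp90 function; inhibitor potency where signal loss means Hsp90 inhibition.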 It is filed as functional, cell-based.
Chain of ATP-dependent molecular chaperone HSP82 (C4YTQ8 whole entry): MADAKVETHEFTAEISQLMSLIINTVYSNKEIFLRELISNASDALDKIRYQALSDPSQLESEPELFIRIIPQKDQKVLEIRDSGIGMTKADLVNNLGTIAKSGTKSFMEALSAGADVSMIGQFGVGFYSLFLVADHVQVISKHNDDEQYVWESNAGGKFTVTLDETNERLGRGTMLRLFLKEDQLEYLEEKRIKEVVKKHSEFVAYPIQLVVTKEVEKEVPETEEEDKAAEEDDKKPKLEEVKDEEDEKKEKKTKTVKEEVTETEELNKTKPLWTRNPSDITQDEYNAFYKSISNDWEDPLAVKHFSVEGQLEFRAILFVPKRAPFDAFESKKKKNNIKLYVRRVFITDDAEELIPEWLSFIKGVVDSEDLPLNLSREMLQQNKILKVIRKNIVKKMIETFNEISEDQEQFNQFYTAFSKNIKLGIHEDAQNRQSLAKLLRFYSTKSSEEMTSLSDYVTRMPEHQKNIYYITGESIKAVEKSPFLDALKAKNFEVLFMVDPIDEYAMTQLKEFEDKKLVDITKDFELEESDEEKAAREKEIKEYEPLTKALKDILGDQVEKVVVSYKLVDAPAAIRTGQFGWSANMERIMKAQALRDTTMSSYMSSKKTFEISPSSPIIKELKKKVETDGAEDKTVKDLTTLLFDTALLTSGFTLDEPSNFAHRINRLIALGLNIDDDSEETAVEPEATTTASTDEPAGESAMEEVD
For data set [13], the system named is Streptococcus sp. 'group A'. The experiment in a line: growth inhibition of control SK(-) GAS strain, dose response, counter-screen for streptokinase expression inhibitor project, luminescence, kanamycin, BacTiterGlo, confirmation (AID 1900). It counts as functional, organism-based.
In data set [14] the test system is Streptococcus. The data set is described as follows: Group A Streptococcus viability loss, dose response, counter-screen for streptokinase expression inhibitor project, luminescence, BacTiterGlo (AID 1915).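 Note: potency for reduction of bacterial viability or growth.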 It is filed as functional, organism-based.
Data set [15] can be described thus: THP-1 cell cytotoxicity, dose response, cytotoxicity control for non-replicating M. tuberculosis project (AID 489025). It counts as functional.
A short description of data set [16]: Vero E6 cell cytotoxicity, dose response, cytotoxicity control for non-replicating M. tuberculosis project, secondary assay (AID 492998). It counts as functional, VeroE6. As to conditions: Vero C1008.
Data set [17] has as its target T5, Short transient receptor potential channel 4 (Mus musculus, UniProt Q9QUQ5).
T5 sequence (Q9QUQ5 whole entry): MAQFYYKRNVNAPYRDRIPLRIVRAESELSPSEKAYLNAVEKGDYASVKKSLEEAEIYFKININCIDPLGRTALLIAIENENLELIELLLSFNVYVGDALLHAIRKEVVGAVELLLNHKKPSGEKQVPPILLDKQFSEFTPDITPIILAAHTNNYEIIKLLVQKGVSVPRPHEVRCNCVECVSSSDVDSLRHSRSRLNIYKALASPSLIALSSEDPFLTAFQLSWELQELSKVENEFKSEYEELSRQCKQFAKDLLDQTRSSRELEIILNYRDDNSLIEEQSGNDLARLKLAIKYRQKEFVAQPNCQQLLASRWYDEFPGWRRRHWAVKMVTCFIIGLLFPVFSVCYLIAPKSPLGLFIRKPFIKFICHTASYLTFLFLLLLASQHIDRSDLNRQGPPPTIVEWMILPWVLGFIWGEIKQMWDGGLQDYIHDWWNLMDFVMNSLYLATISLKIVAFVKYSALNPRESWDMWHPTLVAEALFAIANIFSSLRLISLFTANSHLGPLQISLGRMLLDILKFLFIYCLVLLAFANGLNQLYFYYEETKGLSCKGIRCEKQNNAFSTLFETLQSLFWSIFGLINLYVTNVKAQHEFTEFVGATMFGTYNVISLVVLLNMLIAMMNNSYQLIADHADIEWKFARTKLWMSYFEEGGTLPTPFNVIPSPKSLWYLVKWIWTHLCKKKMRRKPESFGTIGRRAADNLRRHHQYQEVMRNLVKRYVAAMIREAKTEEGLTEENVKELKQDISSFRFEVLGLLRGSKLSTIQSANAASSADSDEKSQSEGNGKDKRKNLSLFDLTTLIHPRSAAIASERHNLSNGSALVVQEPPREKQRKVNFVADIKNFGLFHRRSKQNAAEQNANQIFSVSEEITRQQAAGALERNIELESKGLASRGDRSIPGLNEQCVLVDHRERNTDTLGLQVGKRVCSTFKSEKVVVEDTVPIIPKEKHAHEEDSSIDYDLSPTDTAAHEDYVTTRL
The experiment in a line: mouse TRPC4 channel activators, dose response, cell-based, HEK293 TRPC4/mu-opioid, Fluo-4 calcium (AID 434937). It counts as functional.

Data set [18] is described as follows: cells. It counts as functional.
Data set [19] has as its target Cytochrome P450 2C19 (Homo sapiens, UniProt P33261). The experiment in a line: Cytochrome panel assay with activity outcomes. Panel member name: p450-cyp2c19 Compounds with AC50 equal or less than 10 uM are considered active. It is filed as functional. The settings on record: read-out: AC50.
Data set [20] concerns the target Cytochrome P450 2D6 (Homo sapiens, UniProt P10635).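 Note: CYP2D6 member of a cytochrome P450 panel assay.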
The target in data set [21] is T6, Voltage-gated N-type calcium channel alpha-1B subunit/Amyloid beta A4 precursor protein-binding family A member 1 (Homo sapiens, UniProt Q00975+Q02410). It is filed as protein assay.
T6 sequence (Q00975 whole entry): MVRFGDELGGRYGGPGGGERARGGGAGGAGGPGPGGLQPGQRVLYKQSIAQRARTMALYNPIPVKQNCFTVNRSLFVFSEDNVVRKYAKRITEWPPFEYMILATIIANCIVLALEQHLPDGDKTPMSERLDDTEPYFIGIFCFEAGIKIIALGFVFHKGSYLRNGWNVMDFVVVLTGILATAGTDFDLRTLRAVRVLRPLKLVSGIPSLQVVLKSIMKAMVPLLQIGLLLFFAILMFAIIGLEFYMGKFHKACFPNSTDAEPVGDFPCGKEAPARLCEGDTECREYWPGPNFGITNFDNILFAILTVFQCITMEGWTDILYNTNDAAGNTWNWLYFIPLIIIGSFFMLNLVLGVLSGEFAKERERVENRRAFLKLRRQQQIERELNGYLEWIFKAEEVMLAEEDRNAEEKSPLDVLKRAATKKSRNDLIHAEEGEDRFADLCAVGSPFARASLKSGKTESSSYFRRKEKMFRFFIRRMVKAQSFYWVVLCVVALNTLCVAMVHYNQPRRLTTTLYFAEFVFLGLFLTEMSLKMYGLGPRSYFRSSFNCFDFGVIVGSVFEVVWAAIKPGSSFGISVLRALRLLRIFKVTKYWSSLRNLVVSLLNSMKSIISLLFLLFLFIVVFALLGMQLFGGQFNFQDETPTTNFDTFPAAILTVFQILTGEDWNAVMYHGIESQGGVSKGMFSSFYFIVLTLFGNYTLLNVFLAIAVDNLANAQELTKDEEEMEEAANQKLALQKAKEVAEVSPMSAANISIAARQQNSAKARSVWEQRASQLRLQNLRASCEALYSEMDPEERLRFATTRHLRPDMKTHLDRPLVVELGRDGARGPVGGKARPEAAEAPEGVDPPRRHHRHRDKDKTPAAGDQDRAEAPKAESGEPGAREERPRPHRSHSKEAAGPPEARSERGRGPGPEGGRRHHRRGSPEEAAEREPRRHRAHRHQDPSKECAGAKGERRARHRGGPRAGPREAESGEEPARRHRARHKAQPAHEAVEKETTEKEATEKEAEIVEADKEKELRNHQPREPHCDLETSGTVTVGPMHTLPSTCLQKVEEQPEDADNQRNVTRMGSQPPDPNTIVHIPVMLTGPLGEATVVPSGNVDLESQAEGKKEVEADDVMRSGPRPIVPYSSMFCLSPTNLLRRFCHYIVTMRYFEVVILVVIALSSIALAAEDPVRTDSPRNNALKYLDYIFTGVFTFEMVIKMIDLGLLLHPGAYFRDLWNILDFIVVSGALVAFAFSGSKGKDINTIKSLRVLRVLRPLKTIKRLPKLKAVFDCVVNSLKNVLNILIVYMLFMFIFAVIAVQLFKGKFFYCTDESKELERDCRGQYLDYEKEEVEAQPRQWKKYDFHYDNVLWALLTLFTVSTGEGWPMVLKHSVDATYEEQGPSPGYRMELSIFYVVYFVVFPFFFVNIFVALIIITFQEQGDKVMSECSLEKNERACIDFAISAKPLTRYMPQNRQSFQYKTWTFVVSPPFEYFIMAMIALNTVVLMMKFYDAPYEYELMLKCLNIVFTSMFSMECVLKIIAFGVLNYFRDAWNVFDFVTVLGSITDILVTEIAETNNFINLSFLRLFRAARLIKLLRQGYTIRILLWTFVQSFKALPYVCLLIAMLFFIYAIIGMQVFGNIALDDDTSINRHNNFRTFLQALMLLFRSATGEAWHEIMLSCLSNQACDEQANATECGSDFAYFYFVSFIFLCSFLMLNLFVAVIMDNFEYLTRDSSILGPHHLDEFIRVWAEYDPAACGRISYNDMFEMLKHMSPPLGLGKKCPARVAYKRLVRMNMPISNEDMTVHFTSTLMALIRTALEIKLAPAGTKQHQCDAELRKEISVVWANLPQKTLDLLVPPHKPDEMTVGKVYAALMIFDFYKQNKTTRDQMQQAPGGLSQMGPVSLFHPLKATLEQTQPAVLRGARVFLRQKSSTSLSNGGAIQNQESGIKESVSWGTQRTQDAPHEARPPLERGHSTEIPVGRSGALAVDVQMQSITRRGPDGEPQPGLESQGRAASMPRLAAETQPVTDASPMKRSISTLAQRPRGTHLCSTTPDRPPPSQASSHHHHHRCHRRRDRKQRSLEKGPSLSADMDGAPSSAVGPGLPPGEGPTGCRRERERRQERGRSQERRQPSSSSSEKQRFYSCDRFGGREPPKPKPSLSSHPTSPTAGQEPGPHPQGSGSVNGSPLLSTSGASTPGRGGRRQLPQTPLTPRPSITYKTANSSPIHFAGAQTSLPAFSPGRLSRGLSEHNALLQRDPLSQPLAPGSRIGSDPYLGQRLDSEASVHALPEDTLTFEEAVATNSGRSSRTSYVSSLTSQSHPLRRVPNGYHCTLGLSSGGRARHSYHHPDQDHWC
T6 sequence (Q02410 whole entry): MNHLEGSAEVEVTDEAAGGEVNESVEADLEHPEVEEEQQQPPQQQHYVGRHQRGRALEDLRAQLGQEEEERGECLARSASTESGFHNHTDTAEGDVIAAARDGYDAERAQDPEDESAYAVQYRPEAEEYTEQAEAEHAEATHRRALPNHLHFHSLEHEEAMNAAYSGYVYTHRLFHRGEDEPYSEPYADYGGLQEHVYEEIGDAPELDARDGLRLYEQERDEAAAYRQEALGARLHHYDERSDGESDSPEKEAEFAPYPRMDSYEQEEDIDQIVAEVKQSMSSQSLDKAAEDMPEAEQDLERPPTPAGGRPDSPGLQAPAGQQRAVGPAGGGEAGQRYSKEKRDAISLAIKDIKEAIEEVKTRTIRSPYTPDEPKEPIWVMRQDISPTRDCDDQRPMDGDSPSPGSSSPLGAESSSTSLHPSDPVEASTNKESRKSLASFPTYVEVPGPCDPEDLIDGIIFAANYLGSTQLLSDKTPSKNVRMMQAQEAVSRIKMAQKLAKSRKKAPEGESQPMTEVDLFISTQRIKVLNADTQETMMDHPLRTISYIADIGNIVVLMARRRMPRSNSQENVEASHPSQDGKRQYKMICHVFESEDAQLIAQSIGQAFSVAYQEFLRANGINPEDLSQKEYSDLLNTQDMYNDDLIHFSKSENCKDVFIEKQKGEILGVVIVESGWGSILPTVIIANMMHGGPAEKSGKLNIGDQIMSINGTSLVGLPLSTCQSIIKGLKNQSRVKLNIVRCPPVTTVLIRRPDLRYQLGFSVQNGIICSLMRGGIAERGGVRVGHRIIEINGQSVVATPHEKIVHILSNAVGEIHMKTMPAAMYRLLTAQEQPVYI
Data set [22] addresses T6, Voltage-gated N-type calcium channel alpha-1B subunit/Amyloid beta A4 precursor protein-binding family A member 1. It counts as protein assay. The source holds these as a separate data set.
Data set [23] relates to Escherichia coli. The experiment in a line: microbe, parasite or virus in culture.
Data set [24] is described as follows: HEp-2 cell cytotoxicity, dose response, cytotoxicity control for RSV inhibitor project, HTS (AID 2410). It is filed as functional. The settings on record: human respiratory syncytial virus.
Data set [25] can be described thus: inhibitors of firefly luciferase expression or activity, dose response, H4 neuroglioma cells, luminescence (AID 1990). It is filed as functional, cell-based.
Data set [26] in a line: Luminescence Cell-Based Dose Response HTS to Identify Inhibitors of 5'UTR Stem-Loop Driven Prion Protein mRNA Translation in H4 Neuroglioblastoma Cells. [Related pubchem assays: 1827 (Project Summary), 1813 (Primary HTS)]. It counts as functional.
Data set [27] has as its system Vero. The experiment in a line: host cell cytotoxicity of antiviral hits, dose response, cytotoxicity control for West Nile virus antiviral project, secondary assay (AID 1650). As to conditions: Chlorocebus sabaeus. It is filed as functional.
A short description of data set [28]: inhibitors of SNCA 5'UTR-driven reporter translation, confirmation, H4 neuroglioma cells, luminescence (AID 1988). It is filed as functional, cell-based.
Data set [29] deals with Escherichia coli. The data set is described as follows: microbe, parasite or virus in culture. This is another data set of the same source.
Data set [30] deals with HeLa. The experiment in a line: HeLa cell cytotoxicity, dose response, cytotoxicity control for MITF activator project, CellTiter-Glo luminescence, cherry-pick samples (AID 540259). It is filed as functional, cell-based. As to conditions: Homo sapiens.

The source made the active and inactive calls.

Chain of Cytochrome P450 2C19 (P33261 whole entry): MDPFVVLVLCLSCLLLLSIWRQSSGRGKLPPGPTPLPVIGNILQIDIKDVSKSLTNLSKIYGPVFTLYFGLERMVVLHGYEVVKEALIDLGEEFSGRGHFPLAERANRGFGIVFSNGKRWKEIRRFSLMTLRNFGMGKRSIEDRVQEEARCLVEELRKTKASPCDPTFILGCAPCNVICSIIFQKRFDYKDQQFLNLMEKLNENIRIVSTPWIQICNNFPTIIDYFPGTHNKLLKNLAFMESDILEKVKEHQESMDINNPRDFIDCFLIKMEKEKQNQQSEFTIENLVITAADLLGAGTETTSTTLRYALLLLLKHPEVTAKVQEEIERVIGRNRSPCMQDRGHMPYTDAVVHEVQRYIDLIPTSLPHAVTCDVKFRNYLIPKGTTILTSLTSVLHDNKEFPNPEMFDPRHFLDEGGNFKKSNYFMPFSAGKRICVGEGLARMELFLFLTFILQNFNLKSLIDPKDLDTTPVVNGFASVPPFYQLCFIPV

With `CCn1c(=O)n(Cc2ccccc2C)c(=O)n([C@@H](Cc2ccccc2)C(=O)O)c1=O`, the IC50 in data set [1] is > 100 µM (not active); in [2], > 100 µM (not active); in [3], > 100 µM (inactive); in [4] it was > 100 µM (inactive).

`S=C1SCN(CCN2CCOCC2)CN1Cc1ccccc1`: the IC50 in data set [5] was > 25 µM (active). Further, the CC50 in [6] was 24.4 µM (active). Further, the results for the half-maximal activity concentration (AC50) in data set [7] and in data set [8] were 6.31 µM (inconclusive) and 28.2 µM (inconclusive), respectively.

As to `C=CCN(CC=C)Cc1c(O)ccc2c(=O)c(-c3ccccc3)coc12`, the EC50 in data set [9] was 131 µM (active); in data set [10] it was < 0.03 µM (active); in data set [11], > 180 µM (inactive); in [12] it was > 150 µM (inactive).

Turning to `Cc1ccc(C(=O)NNC(=S)NC(=O)c2ccc(Cl)cc2)cc1`, the concentration for a half-maximal effect (EC50) was 0.182 µM (active) in data set [13], 3.71 µM (active) in data set [14] and 2.11 µM (active) in data set [17]. Further, the cytotoxic concentration (CC50) in data set [15] is 22.9 µM (active); in data set [16], 17 µM (active). In data set [18], the IC50 is < 0.1 µM (active). Further, the AC50 in data set [19] is 35.5 µM (inconclusive); in data set [20], “inconclusive”.

`O=C(O)CCc1ccc(-c2cccs2)o1`: the IC50 in data set [21] is 21.3 µM (active); in [22] it was 3.13 µM (active). In addition, the AC50 in data set [23] was > 380 µM (inactive).

Consider `O=S(=O)(c1cccs1)N1CCN(c2ccnc3cc(Cl)ccc23)CC1`, for which the cytotoxic concentration (CC50) was 14.3 µM (active) in data set [24], 30 µM (active) in data set [27] and 22 µM (active) in data set [6]. In addition, the results for the EC50 in [25], in [26] and in [28] were 13.5 µM (active), 13.1 µM (active) and > 120 µM (not active), respectively. Moreover, the IC50 in data set [5] was > 25 µM (active).

In the case of `O=C(CSCc1ccc(Cl)cc1)Nc1ccc(-c2nnc(-c3ccccc3)o2)cc1`, the AC50 in [29] was 23.9 µM (active); in data set [23], 58.8 µM (active).

Regarding `Cc1ccc(-c2noc(C3CCCCC3)n2)cc1`, the concentration at half-maximal activity (AC50) in data set [30] is 79.6 µM (active).

Consider `CN(/N=C/c1ccc2c(c1)OCO2)c1ccccc1`, for which, in data set [30], the half-maximal activity concentration (AC50) was 98.3 µM (active).

The values above are taken from ChEMBL document CHEMBL1201862, “PubChem BioAssay data set” (2004).
